What all share (test): Fluorescence Polarization Assay
The target in one assay is Galectin-1 (Homo sapiens, UniProt P09382). As to conditions: pH 7.2; 24 °C. How it is done: (§1) In fluorescence polarization measurements, a fluorescent probe was excited with plane-polarized light and the degree of polarization remaining in the emitted light is measured. When the probe is bound to protein, it rotates slower than when free, and the remaining fluorescence polarization is higher. The fluorescent anisotropy value for a probe-protein mixture is the average of the value for bound and free probe. For the direct binding asaay, the data (anisotropy, A in mA vs galectin concentration, [G] in uM) were fitted to a simplified formula to obtain Kd.

A further assay deals with Galectin-3 (Homo sapiens, UniProt P17931). As to conditions: pH 7.2; 24 °C. As to the method:
as §1

The next assay has as its target Galectin-7 (Homo sapiens, UniProt P47929). As to the method:
as §1

The target of the next assay is T1, Galectin-8 (Homo sapiens, UniProt O00214).
T1 sequence (O00214 whole entry): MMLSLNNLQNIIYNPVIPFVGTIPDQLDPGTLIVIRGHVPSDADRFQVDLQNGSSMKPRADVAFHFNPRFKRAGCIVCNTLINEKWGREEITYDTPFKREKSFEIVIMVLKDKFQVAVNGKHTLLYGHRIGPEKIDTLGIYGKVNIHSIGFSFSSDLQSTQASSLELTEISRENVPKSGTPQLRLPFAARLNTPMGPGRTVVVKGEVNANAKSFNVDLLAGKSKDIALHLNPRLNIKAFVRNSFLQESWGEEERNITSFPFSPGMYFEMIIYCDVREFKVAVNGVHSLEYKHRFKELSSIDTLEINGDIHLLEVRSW
How it is done: as §1

A further assay has as its target Galectin-9 (Homo sapiens, UniProt O00182). As to the method:
as §1

SMILES strings stand for the structures. Where only a bound is given, the exact number is not on record here.

Chain of Galectin-9 (O00182 whole entry): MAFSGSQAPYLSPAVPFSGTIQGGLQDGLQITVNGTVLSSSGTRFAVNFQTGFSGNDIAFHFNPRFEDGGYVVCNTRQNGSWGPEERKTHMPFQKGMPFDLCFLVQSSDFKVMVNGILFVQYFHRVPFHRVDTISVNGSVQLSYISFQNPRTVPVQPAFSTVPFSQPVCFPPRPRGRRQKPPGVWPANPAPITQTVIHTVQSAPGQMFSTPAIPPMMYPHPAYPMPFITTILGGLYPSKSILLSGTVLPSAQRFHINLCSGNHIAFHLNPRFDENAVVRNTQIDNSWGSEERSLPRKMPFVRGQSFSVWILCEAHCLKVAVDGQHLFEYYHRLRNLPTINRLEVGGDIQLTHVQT
Chain of Galectin-3 (P17931 whole entry): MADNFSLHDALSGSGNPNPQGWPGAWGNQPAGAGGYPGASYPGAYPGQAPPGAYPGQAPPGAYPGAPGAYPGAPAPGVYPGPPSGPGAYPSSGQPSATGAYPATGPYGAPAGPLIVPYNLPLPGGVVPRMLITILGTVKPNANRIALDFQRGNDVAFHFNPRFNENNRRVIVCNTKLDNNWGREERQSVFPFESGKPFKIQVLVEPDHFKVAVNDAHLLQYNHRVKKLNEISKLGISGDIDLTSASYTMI
Chain of Galectin-7 (P47929 whole entry): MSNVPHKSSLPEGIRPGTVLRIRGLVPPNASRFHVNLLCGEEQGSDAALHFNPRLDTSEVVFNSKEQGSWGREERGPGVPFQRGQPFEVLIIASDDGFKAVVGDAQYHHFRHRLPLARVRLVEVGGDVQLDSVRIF
Chain of Galectin-1 (P09382 whole entry): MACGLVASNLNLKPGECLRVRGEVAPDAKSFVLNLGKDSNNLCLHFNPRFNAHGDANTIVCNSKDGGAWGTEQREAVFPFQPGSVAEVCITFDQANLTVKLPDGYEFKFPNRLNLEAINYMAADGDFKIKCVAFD

One may read the Kd as the constant that tells how readily two partners part at equilibrium. A high value points to a looser complex. With `CO[C@@H]1O[C@H](CO)[C@@H](O[C@@H]2O[C@H](CO)[C@H](O)[C@H](O)[C@H]2O)[C@H](O)[C@H]1NC(C)=O` [N-[(2R,3R,4R,5S,6R)-4-hydroxy-6-(hydroxymethyl)-2-methoxy-5-{[(2S,3R,4S,5R,6R)-3,4,5-trihydroxy-6-(hydroxymethyl)oxan-2-yl]oxy}oxan-3-yl]acetamide], the dissociation constant Kd at Galectin-1 is 70 µM; at Galectin-3, 67 µM; at Galectin-7, 490 µM; on Galectin-8 it was 700 µM; at Galectin-9 it was 500 µM.

Regarding `CO[C@@H]1O[C@H](CO)[C@@H](O[C@@H]2O[C@H](CO)[C@H](O)[C@H](NC(=S)NCCO)[C@H]2O)[C@H](O)[C@H]1NC(C)=O` [N-[(2R,3R,4R,5S,6R)-5-{[(2S,3R,4S,5R,6R)-3,5-dihydroxy-4-{[(2-hydroxyethyl)carbamothioyl]amino}-6-(hydroxymethyl)oxan-2-yl]oxy}-4-hydroxy-6-(hydroxymethyl)-2-methoxyoxan-3-yl]acetamide], the Kd on Galectin-1 was 49 µM; on Galectin-3 it was 74 µM; at Galectin-7, 130 µM; on Galectin-8, 500 µM; at Galectin-9 it was 120 µM.

`CNC(=S)N[C@H]1[C@@H](O)[C@@H](CO)O[C@@H](O[C@H]2[C@H](O)[C@@H](NC(C)=O)[C@H](OC)O[C@@H]2CO)[C@@H]1O` [N-[(2R,3R,4R,5S,6R)-5-{[(2S,3R,4S,5R,6R)-3,5-dihydroxy-6-(hydroxymethyl)-4-[(methylcarbamothioyl)amino]oxan-2-yl]oxy}-4-hydroxy-6-(hydroxymethyl)-2-methoxyoxan-3-yl]acetamide]: the Kd on Galectin-1 is 49 µM; on Galectin-3 it was 38 µM; on Galectin-7 it was 65 µM; on Galectin-8 it was greater than 3000 µM; at Galectin-9, 110 µM.

With `CO[C@@H]1O[C@H](CO)[C@@H](O[C@@H]2O[C@H](CO)[C@H](O)[C@H](NC(=S)N3CCOCC3)[C@H]2O)[C@H](O)[C@H]1NC(C)=O` [N-[(2R,3R,4R,5S,6R)-5-{[(2S,3R,4S,5R,6R)-3,5-dihydroxy-6-(hydroxymethyl)-4-[(morpholin-4-ylmethanethioyl)amino]oxan-2-yl]oxy}-4-hydroxy-6-(hydroxymethyl)-2-methoxyoxan-3-yl]acetamide], the values for the Kd on Galectin-1 and on Galectin-3 were 160 µM and 69 µM, respectively.

Turning to `CO[C@@H]1O[C@H](CO)[C@@H](O[C@@H]2O[C@H](CO)[C@H](O)[C@H](NC(=S)Nc3ccccc3)[C@H]2O)[C@H](O)[C@H]1NC(C)=O` [N-[(2R,3R,4R,5S,6R)-5-{[(2S,3R,4S,5R,6R)-3,5-dihydroxy-6-(hydroxymethyl)-4-[(phenylcarbamothioyl)amino]oxan-2-yl]oxy}-4-hydroxy-6-(hydroxymethyl)-2-methoxyoxan-3-yl]acetamide], the Kd is 45 µM at Galectin-1; 40 µM on Galectin-3; 110 µM on Galectin-7; greater than 3000 µM at Galectin-8; 100 µM on Galectin-9.

Consider `C=CCNC(=S)N[C@H]1[C@@H](O)[C@@H](CO)O[C@@H](O[C@H]2[C@H](O)[C@@H](NC(C)=O)[C@H](OC)O[C@@H]2CO)[C@@H]1O` [N-[(2R,3R,4R,5S,6R)-5-{[(2S,3R,4S,5R,6R)-3,5-dihydroxy-6-(hydroxymethyl)-4-[(prop-2-en-1-ylcarbamothioyl)amino]oxan-2-yl]oxy}-4-hydroxy-6-(hydroxymethyl)-2-methoxyoxan-3-yl]acetamide], for which the equilibrium dissociation constant (Kd) at Galectin-1 was 34 µM; at Galectin-3 it was 52 µM; on Galectin-7, 100 µM; at Galectin-8, greater than 3000 µM; at Galectin-9, 97 µM.

Regarding `CO[C@@H]1O[C@H](CO)[C@@H](O[C@@H]2O[C@H](CO)[C@H](O)[C@H](NC(=S)NCCCO)[C@H]2O)[C@H](O)[C@H]1NC(C)=O` [N-[(2R,3R,4R,5S,6R)-5-{[(2S,3R,4S,5R,6R)-3,5-dihydroxy-6-(hydroxymethyl)-4-{[(3-hydroxypropyl)carbamothioyl]amino}oxan-2-yl]oxy}-4-hydroxy-6-(hydroxymethyl)-2-methoxyoxan-3-yl]acetamide], the dissociation constant Kd on Galectin-1 is 23 µM; on Galectin-3, 65 µM; on Galectin-7, 150 µM; at Galectin-8 it was greater than 3000 µM; at Galectin-9 it was 92 µM.

`CO[C@@H]1O[C@H](CO)[C@@H](O[C@@H]2O[C@H](CO)[C@H](O)[C@H](NC(=S)NCc3cccnc3)[C@H]2O)[C@H](O)[C@H]1NC(C)=O` [N-[(2R,3R,4R,5S,6R)-5-{[(2S,3R,4S,5R,6R)-3,5-dihydroxy-6-(hydroxymethyl)-4-{[(pyridin-3-ylmethyl)carbamothioyl]amino}oxan-2-yl]oxy}-4-hydroxy-6-(hydroxymethyl)-2-methoxyoxan-3-yl]acetamide]: the Kd at Galectin-1 is 43 µM; on Galectin-3, 35 µM; on Galectin-7 it was 23 µM; at Galectin-9, 47 µM.

Take `CO[C@@H]1O[C@H](CO)[C@@H](O[C@@H]2O[C@H](CO)[C@H](O)[C@H](NC(N)=S)[C@H]2O)[C@H](O)[C@H]1NC(C)=O` [N-[(2R,3R,4R,5S,6R)-5-{[(2S,3R,4S,5R,6R)-4-(carbamothioylamino)-3,5-dihydroxy-6-(hydroxymethyl)oxan-2-yl]oxy}-4-hydroxy-6-(hydroxymethyl)-2-methoxyoxan-3-yl]acetamide]: the dissociation constant (Kd) on Galectin-1 was 43 µM; on Galectin-3, 65 µM; at Galectin-7, 170 µM; at Galectin-8, greater than 3000 µM; on Galectin-9 it was 76 µM.

`CO[C@@H]1O[C@H](CO)[C@@H](O[C@@H]2O[C@H](CO)[C@H](O)[C@H](NC(=S)N[C@H]3[C@@H](O)[C@@H](CO)O[C@@H](O[C@H]4[C@H](O)[C@@H](NC(C)=O)[C@H](OC)O[C@@H]4CO)[C@@H]3O)[C@H]2O)[C@H](O)[C@H]1NC(C)=O` [N-[(2R,3R,4R,5S,6R)-5-{[(2S,3R,4S,5R,6R)-4-({[(2S,3R,4S,5R,6R)-2-{[(2R,3S,4R,5R,6R)-5-acetamido-4-hydroxy-2-(hydroxymethyl)-6-methoxyoxan-3-yl]oxy}-3,5-dihydroxy-6-(hydroxymethyl)oxan-4-yl]carbamothioyl}amino)-3,5-dihydroxy-6-(hydroxymethyl)oxan-2-yl]oxy}-4-hydroxy-6-(hydroxymethyl)-2-methoxyoxan-3-yl]acetamide]: the Kd on Galectin-1 is 58 µM; on Galectin-3 it was 160 µM; at Galectin-7 it was 170 µM; on Galectin-8 it was greater than 3000 µM; at Galectin-9 it was 240 µM.

For `CO[C@@H]1O[C@H](CO)[C@@H](O[C@@H]2O[C@H](CO)[C@H](O)[C@H](NC(=S)NCc3ccccc3)[C@H]2O)[C@H](O)[C@H]1NC(C)=O` [N-[(2R,3R,4R,5S,6R)-5-{[(2S,3R,4S,5R,6R)-4-[(benzylcarbamothioyl)amino]-3,5-dihydroxy-6-(hydroxymethyl)oxan-2-yl]oxy}-4-hydroxy-6-(hydroxymethyl)-2-methoxyoxan-3-yl]acetamide], the Kd on Galectin-1 came to 35 µM; on Galectin-3, 15 µM.

Regarding `CCCCNC(=S)N[C@H]1[C@@H](O)[C@@H](CO)O[C@@H](O[C@H]2[C@H](O)[C@@H](NC(C)=O)[C@H](OC)O[C@@H]2CO)[C@@H]1O` [N-[(2R,3R,4R,5S,6R)-5-{[(2S,3R,4S,5R,6R)-4-[(butylcarbamothioyl)amino]-3,5-dihydroxy-6-(hydroxymethyl)oxan-2-yl]oxy}-4-hydroxy-6-(hydroxymethyl)-2-methoxyoxan-3-yl]acetamide], the Kd on Galectin-1 was 23 µM; at Galectin-3, 23 µM; at Galectin-7, 130 µM; on Galectin-8 it was greater than 3000 µM; on Galectin-9, 69 µM.

Regarding `CO[C@@H]1O[C@H](CO)[C@@H](O[C@@H]2O[C@H](CO)[C@H](O)[C@H](NC(=S)NC3CCCCC3)[C@H]2O)[C@H](O)[C@H]1NC(C)=O` [N-[(2R,3R,4R,5S,6R)-5-{[(2S,3R,4S,5R,6R)-4-[(cyclohexylcarbamothioyl)amino]-3,5-dihydroxy-6-(hydroxymethyl)oxan-2-yl]oxy}-4-hydroxy-6-(hydroxymethyl)-2-methoxyoxan-3-yl]acetamide], the Kd was 40 µM at Galectin-1; 57 µM at Galectin-3; 24 µM on Galectin-7; 650 µM at Galectin-8; 80 µM at Galectin-9.

Take `CCN(CC)C(=S)N[C@H]1[C@@H](O)[C@@H](CO)O[C@@H](O[C@H]2[C@H](O)[C@@H](NC(C)=O)[C@H](OC)O[C@@H]2CO)[C@@H]1O` [N-[(2R,3R,4R,5S,6R)-5-{[(2S,3R,4S,5R,6R)-4-[(diethylcarbamothioyl)amino]-3,5-dihydroxy-6-(hydroxymethyl)oxan-2-yl]oxy}-4-hydroxy-6-(hydroxymethyl)-2-methoxyoxan-3-yl]acetamide]: the dissociation constant Kd on Galectin-1 was 46 µM; at Galectin-3, 43 µM; on Galectin-7 it was 180 µM; at Galectin-8, greater than 3000 µM; at Galectin-9, 280 µM.

(Values after BindingDB's records for doi:10.1016/j.bmc.2005.09.050 (Lund University, 2006).)
